ChEMBL document CHEMBL1153697, “Bioactive constituents of the stem bark of Mitrephora glabra” (J Nat Prod, 2009)
Values after ≈ are worked out from the molar mass of the structure shown. Active and inactive are the calls of the source. The calls are words filed in the database; no cut-off is given here.

Columns and labels:
Micrococcus luteus = assay: Antibacterial activity against Micrococcus luteus after 3 days by broth microdilution method; type: functional; conditions: 72 h
[1] = test system: Mycolicibacterium smegmatis; assay: Antibacterial activity against Mycobacterium smegmatis after 3 days by broth microdilution method; type: functional; conditions: 72 h
Saccharomyces cerevisiae = assay: Antifungal activity against Saccharomyces cerevisiae after 3 days by broth microdilution method; type: functional; conditions: 72 h
Aspergillus niger = assay: Antifungal activity against Aspergillus niger after 3 days by broth microdilution method; type: functional; conditions: 72 h
KB = assay: Cytotoxicity against human KB cells after 3 days by sulforhodamine B assay; type: functional, cell-based; conditions: for IC50: 72 h
MCF7 = assay: Cytotoxicity against human MCF7 cells after 3 days by sulforhodamine B assay; type: functional, cell-based; conditions: for IC50: MCF7, 72 h
NCI-H460 = assay: Cytotoxicity against human NCI-H460 cells after 3 days by sulforhodamine B assay; type: functional, cell-based; conditions: for IC50: NCI-H460, 72 h
SF-268 = assay: Cytotoxicity against human SF268 cells after 3 days by sulforhodamine B assay; type: functional, cell-based; conditions: for IC50: SF-268, 72 h

SMILES	MIC (Micrococcus luteus) [µg/mL]	MIC [1] [µg/mL]	MIC (Saccharomyces cerevisiae) [µg/mL]	MIC (Aspergillus niger) [µg/mL]	IC50 (KB) [µM]	IC50 (MCF7) [µM]	IC50 (NCI-H460) [µM]	IC50 (SF-268) [µM]	Activity (KB)	Activity (MCF7)	Activity (NCI-H460)	Activity (SF-268)
C=C1C[C@@]23CC[C@H]4[C@@](C)(CCC[C@]4(C)C(=O)O)[C@@H]2CC[C@@H]1C3	50 (≈ 165 µM)	50 (≈ 165 µM)	50 (≈ 165 µM)	100 (≈ 331 µM)	> 10	> 10	> 10	> 10	–	–	–	–
C=C1C[C@]2(C(=O)O)C[C@H]1CC[C@H]2[C@]1(C)CCC[C@@](C)(C(=O)OC)[C@H]1C(=O)O	150 (≈ 396 µM)	75 (≈ 198 µM)	150 (≈ 396 µM)	150 (≈ 396 µM)	> 10	> 10	> 10	> 10	–	–	–	–
C=CCCC#CC#CC#C/C=C/CCCC[C@@H]1C[C@@H](CO)OC1=O	50 (≈ 154 µM)	12 (≈ 37 µM)	12 (≈ 37 µM)	12 (≈ 37 µM)	10	10	10	10	–	–	–	–
CCCCC#CC#CC#CCCCCCCCC(=O)O	25 (≈ 91.8 µM)	25 (≈ 91.8 µM)	25 (≈ 91.8 µM)	50 (≈ 184 µM)	10	10	10	10	–	–	–	–
C[C@@H]1[C@H](O)[C@@H](C)/C=C/C=C/C=C/C=C/C=C/C=C/C=C/[C@H](O[C@@H]2O[C@H](C)[C@@H](O)[C@H](N)[C@@H]2O)C[C@@H]2O[C@](O)(C[C@@H](O)C[C@@H](O)[C@H](O)CC[C@@H](O)C[C@@H](O)CC(=O)O[C@H]1C)C[C@H](O)[C@H]2C(=O)O [AMPHOTERICIN B]	–	–	25 (≈ 27.1 µM)	25 (≈ 27.1 µM)	–	–	–	–	–	–	–	–
CC1(C)S[C@@H]2[C@H](NC(=O)[C@H](N)c3ccccc3)C(=O)N2[C@H]1C(=O)O [AMPICILLIN]	0.1 (≈ 0.286 µM)	–	–	–	–	–	–	–	–	–	–	–
NC[C@H]1O[C@H](O[C@H]2[C@H](O)[C@@H](O[C@H]3O[C@H](CO)[C@@H](O)[C@H](N)[C@H]3O)[C@H](N)C[C@@H]2N)[C@H](O)[C@@H](O)[C@@H]1O [KANAMYCIN]	–	0.2 (≈ 0.413 µM)	–	–	–	–	–	–	–	–	–	–
O=C1c2ccccc2-c2c3c(cc4ccnc1c24)OCO3 [LIRIODENINE]	6.3 (≈ 22.9 µM)	12 (≈ 43.6 µM)	12 (≈ 43.6 µM)	25 (≈ 90.8 µM)	5	5	5	5	–	–	–	–
C=CCCC#CC#CC#CCCCCCCCC(=O)OC [METHYLOROPHEATE]	50 (≈ 176 µM)	12 (≈ 42.2 µM)	25 (≈ 87.9 µM)	25 (≈ 87.9 µM)	–	–	–	–	inactive	inactive	inactive	inactive
C=C1C[C@]23C[C@H]1CC[C@H]2[C@]1(C)CCC[C@@]2(C)C(=O)O[C@@H](C3=O)[C@@H]12 [MITREKAURENONE]	150 (≈ 477 µM)	38 (≈ 121 µM)	38 (≈ 121 µM)	38 (≈ 121 µM)	> 10	> 10	> 10	> 10	–	–	–	–
C=CCCC#CC#CC#CCCCCCCCC(=O)O [OROPHEIC ACID]	94 (≈ 348 µM)	94 (≈ 348 µM)	47 (≈ 174 µM)	188 (≈ 695 µM)	10	10	10	10	–	–	–	–
C=CCCC#CC#CC#CCCCCCC[C@@H]1C[C@@H](CO)OC1=O [OROPHEOLIDE]	125 (≈ 383 µM)	31 (≈ 95 µM)	63 (≈ 193 µM)	250 (≈ 766 µM)	10	10	10	10	–	–	–	–
